According to EP4745130A1, “CRYSTAL FORMS OF TUBULIN-SRC DUAL-TARGETING INHIBITOR, PREPARATION METHOD THEREFOR AND USE THEREOF” (Hubei Bio-Pharmaceutical Industrial Technological Institute …, priority 2023, dated 2025):

Experiments:
[1] = Hygroscopicity test by dynamic vapor sorption (DVS); format: physicochemical; details: DVS, 25°C, 0%RH to 95%RH
Method: The dynamic vapor sorption (DVS) curve was collected on DVS IntrInsic from SMS (surface measurement systems). The relative humidity at 25°C was corrected using the deliquescence points of LiCl, Mg(NO3)2, and KCl. Table 18 DVS test parameters
The percentage change in sample mass was collected under constant temperature at 25°C as humidity varied from 0%RH to 95%RH.

[2] = Solid-state stability (XRPD and HPLC after open storage); format: physicochemical; details: for Crystal form: XRPD
Method: The purity test, dynamic solubility test, and stability test in the assay were measured using an Agilent 1260 high-performance liquid chromatograph, and the salt formation molar ratio of ions was tested by ion chromatography, and the analytical conditions are shown in Table 19 and Table 20. Table 19 High-performance liquid chromatography test conditions

[3] = Suspension competition test between free form crystal forms A and B; format: physicochemical; details: in words; at room temperature and 50°C, compared with the free form crystal form B
Description: Table 24 Suspension competition test results between free form crystal forms A and B

[4] = Dynamic solubility experiment at 37°C (water, SGF, FaSSIF, FeSSIF); details: for S: solubility: solid feed 10 mg/mL; for pH: pH value of the filtrate
Method: Rotating mixing was carried out at 37°C at a solid feed concentration of 10 mg/mL (calculated as the compound of Formula I). […] After sampling at each time point, the samples were centrifuged (10000 rpm) and filtered (0.45 µm PTFE filter head), and the HPLC concentration and pH value of the filtrate were measured.
100 mg of NaCl and 50 mg of Triton X-100 were weighed into a 50 mL volumetric flask, and purified water was added to complete dissolution. 816 µL of 1 M hydrochloric acid was added thereto, and the pH was adjusted to 1.8 with 1 M hydrochloric acid or 1 M NaOH solution. Purified water was added to make up to volume.
340 mg of anhydrous NaH2PO4 and 620 mg of NaCl were weighed into a 100 mL volumetric flask. Purified water was added to complete dissolution, followed by addition of 55.44 µL of 50% NaOH solution, and the pH was adjusted to 6.5 using 1M HCl or 1M NaOH solution. Purified water was added to make up to volume. 110 mg of SIF powder was then weighed into a 50 mL volumetric flask, added with the above solution to complete dissolution and make up to volume.
0.82 mL of glacial acetic acid and 1.18 g of NaCl were added to a 100 mL volumetric flask. Purified water was added to complete dissolution, followed by addition of 528 µL of 50% NaOH solution, and the pH was adjusted to 5.0 using 1M HCl or 1M NaOH solution. Purified water was added to make up to volume. 560 mg of SIF powder was then weighed into a 50 mL volumetric flask, added with the above solution to complete dissolution and make up to volume.

## Cc1cc(OCCN2C[C@H]3COC[C@H]3C2)ccc1-c1ccc(CC(=O)NCc2ccccc2)nc1 [Free form crystal form A]
[1]
  hygroscopicity: almost non-hygroscopic
[2]; 25°C/60%RH/open, 1 week
  Purity (area%): 96.76 area%
  Relative to initial (%): 99.9%
  Crystal form: Free form crystal form A
[2]; 40°C/75%RH/open, 1 week
  Purity (area%): 96.70 area%
  Relative to initial (%): 99.8%
  Crystal form: Free form crystal form A
[2]; Initial
  Purity (area%): 96.86 area%
[3]
  thermodynamic stability: thermodynamically more stable crystal form
[4]; FaSSIF, 1 hour, 60 min
  S: solubility: 720 µg/mL
[4]; FaSSIF, 4 hours, 240 min
  S: solubility: 700 µg/mL
[4]; FaSSIF, 24 hours, 1440 min
  S: solubility: 630 µg/mL
[4]; FeSSIF, 1 hour, 60 min
  S: solubility: 3460 µg/mL
[4]; FeSSIF, 4 hours, 240 min
  S: solubility: 3740 µg/mL
[4]; FeSSIF, 24 hours, 1440 min
  S: solubility: 3460 µg/mL
[4]; H2O, 1 hour, 60 min
  S: solubility: 60 µg/mL
[4]; H2O, 4 hours, 240 min
  S: solubility: 80 µg/mL
[4]; H2O, 24 hours, 1440 min
  S: solubility: 60 µg/mL
[4]; SGF, 1 hour, 60 min
  S: solubility: 6710 µg/mL
[4]; SGF, 4 hours, 240 min
  S: solubility: 6770 µg/mL
[4]; SGF, 24 hours, 1440 min
  S: solubility: 6610 µg/mL
[4]; FaSSIF, 1 hour
  pH: 6.6
[4]; FaSSIF, 4 hours
  pH: 6.6
[4]; FaSSIF, 24 hours
  pH: 6.6
[4]; FeSSIF, 1 hour
  pH: 5.3
[4]; FeSSIF, 4 hours
  pH: 5.4
[4]; FeSSIF, 24 hours
  pH: 5.4
[4]; H2O, 1 hour
  pH: 8.6
[4]; H2O, 4 hours
  pH: 8.6
[4]; H2O, 24 hours
  pH: 8.5
[4]; SGF, 1 hour
  pH: 5.7
[4]; SGF, 4 hours
  pH: 5.8
[4]; SGF, 24 hours
  pH: 5.9
